Activity calls are given as the source filed them. No cut-off for these calls is given here.
Tests used:
[1] = molecular target: T1, Protein cereblon/Heat shock protein HSP 90-alpha/Heat shock protein HSP 90-beta (Homo sapiens) (UniProt P07900+P08238+Q96SW2); experiment: Protac activity at CRBN/Hsp90 in human SiHa cells assessed as induction of Hsp90 degradation at 1 uM incubated for 10 hrs by Western blot analysis; format: cell-based
SiHa = experiment: Antiproliferative activity against human SiHa cells assessed as reduction in cell viability incubated for 72 hrs by CCK-8 assay; format: functional, cell-based
[2] = molecular target: T1, Protein cereblon/Heat shock protein HSP 90-alpha/Heat shock protein HSP 90-beta (Homo sapiens); experiment: Protac activity at CRBN/Hsp90 in human SiHa cells assessed as induction of Hsp90 degradation at 1 uM incubated for 2 hrs by Western blot analysis; format: cell-based
[3] = molecular target: T2, von Hippel-Lindau disease tumor suppressor/Heat shock protein HSP 90-alpha/Heat shock protein HSP 90-beta (Homo sapiens) (UniProt P07900+P08238+P40337); experiment: Protac activity at VHL/Hsp90 in human SiHa cells assessed as induction of Hsp90 degradation at 1 uM incubated for 10 hrs by Western blot analysis; format: cell-based
T2 sequence (P08238 whole entry, looked up, other chains not shown): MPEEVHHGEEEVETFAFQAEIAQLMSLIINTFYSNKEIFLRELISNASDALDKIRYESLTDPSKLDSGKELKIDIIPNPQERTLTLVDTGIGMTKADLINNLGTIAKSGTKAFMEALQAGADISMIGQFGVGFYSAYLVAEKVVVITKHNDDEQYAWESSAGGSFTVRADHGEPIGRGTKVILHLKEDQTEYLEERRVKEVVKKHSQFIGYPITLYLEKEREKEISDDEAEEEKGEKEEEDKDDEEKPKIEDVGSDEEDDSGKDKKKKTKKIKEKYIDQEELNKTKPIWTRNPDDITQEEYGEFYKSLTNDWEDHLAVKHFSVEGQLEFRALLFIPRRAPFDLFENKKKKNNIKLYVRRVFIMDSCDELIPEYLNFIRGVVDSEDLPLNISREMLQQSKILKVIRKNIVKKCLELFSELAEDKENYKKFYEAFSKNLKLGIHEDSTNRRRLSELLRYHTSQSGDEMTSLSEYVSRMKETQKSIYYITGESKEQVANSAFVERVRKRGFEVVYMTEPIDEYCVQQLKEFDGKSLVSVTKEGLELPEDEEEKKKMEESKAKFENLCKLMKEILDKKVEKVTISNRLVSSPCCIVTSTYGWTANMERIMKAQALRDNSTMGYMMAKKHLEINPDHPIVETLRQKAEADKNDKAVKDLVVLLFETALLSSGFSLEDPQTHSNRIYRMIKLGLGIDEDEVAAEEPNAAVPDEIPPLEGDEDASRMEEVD
T2 sequence (P40337 whole entry, looked up, other chains not shown): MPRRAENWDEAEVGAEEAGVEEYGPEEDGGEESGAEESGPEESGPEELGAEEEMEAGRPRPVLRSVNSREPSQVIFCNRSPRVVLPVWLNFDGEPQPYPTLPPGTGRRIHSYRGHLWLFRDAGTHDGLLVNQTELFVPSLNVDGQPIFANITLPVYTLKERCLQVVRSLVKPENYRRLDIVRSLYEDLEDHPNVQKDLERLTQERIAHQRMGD

[4] = molecular target: T2, von Hippel-Lindau disease tumor suppressor/Heat shock protein HSP 90-alpha/Heat shock protein HSP 90-beta (Homo sapiens); experiment: Protac activity at VHL/Hsp90 in human SiHa cells assessed as induction of Hsp90 degradation (causing hook effect) at > 0.1 uM incubated for 10 hrs by Western blot analysis; format: cell-based
[5] = molecular target: T1, Protein cereblon/Heat shock protein HSP 90-alpha/Heat shock protein HSP 90-beta (Homo sapiens); experiment: Protac activity at CRBN/Hsp90 in human SiHa cells assessed as induction of Hsp90 degradation (causing hook effect) at > 0.1 uM incubated for 10 hrs by Western blot analysis; format: cell-based

Q: `CC1(C)CC(=O)c2c(C(F)(F)F)nn(-c3ccc(C(N)=O)c(NCCCNC(=O)COCCOCCNc4cccc5c4CN(C4CCC(=O)NC4=O)C5=O)c3)c2C1` (configuration not stated) was tested. Which Activity [1] did it give?
A: inactive

Q: What about the IC50 (SiHa) of the same compound?
A: 7.3 µM

Q: `CN1C(=O)CCC(N2Cc3c(NCCCCCCCC(=O)NCC(=O)O[C@H]4CC[C@H](Nc5cc(-n6nc(C(F)(F)F)c7c6CC(C)(C)CC7=O)ccc5C(N)=O)CC4)cccc3C2=O)C1=O` (some centres not stated) was tested. Which Activity [2] did it give?
A: inactive

Q: Which results are given for `Cc1ncsc1-c1ccc([C@H](C)NC(=O)[C@@H]2C[C@@H](O)CN2C(=O)[C@@H](NCCCCCCCC(=O)NCC(=O)O[C@H]2CC[C@H](Nc3cc(-n4nc(C(F)(F)F)c5c4CC(C)(C)CC5=O)ccc3C(N)=O)CC2)C(C)(C)C)cc1`?
A: Activity [3]: Active; IC50 (SiHa): 0.17 µM

Q: For `CC1(C)CC(=O)c2c(C(F)(F)F)nn(-c3ccc(C(N)=O)c(N[C@H]4CC[C@H](OC(=O)CNC(=O)CCCCCCCCCNc5cccc6c5CN(C5CCC(=O)NC5=O)C6=O)CC4)c3)c2C1` (some centres not stated), which IC50 (SiHa) is on record?
A: 0.14 µM

Q: For `Cc1ncsc1-c1ccc([C@H](C)NC(=O)[C@@H]2C[C@@H](O)CN2C(=O)[C@@H](NCCCCCC(=O)NCC(=O)O[C@H]2CC[C@H](Nc3cc(-n4nc(C(F)(F)F)c5c4CC(C)(C)CC5=O)ccc3C(N)=O)CC2)C(C)(C)C)cc1`, which IC50 (SiHa) is on record?
A: 0.66 µM

Q: With `CC1(C)CC(=O)c2c(C(F)(F)F)nn(-c3ccc(C(N)=O)c(N[C@H]4CC[C@H](OC(=O)CNC(=O)CCCNc5cccc6c5CN(C5CCC(=O)NC5=O)C6=O)CC4)c3)c2C1` (some centres not stated) as the compound, how does the Activity [1] read?
A: Active

Q: And the IC50 (SiHa)?
A: 0.07 µM

Q: Which results are given for `CC1(C)CC(=O)c2c(C(F)(F)F)nn(-c3ccc(C(N)=O)c(N[C@H]4CC[C@H](OC(=O)CNC(=O)CCCCCCNc5cccc6c5CN(C5CCC(=O)NC5=O)C6=O)CC4)c3)c2C1` (some centres not stated)?
A: Activity [1]: Active; IC50 (SiHa): 0.24 µM

Q: Which results are given for `Cc1ncsc1-c1ccc([C@H](C)NC(=O)[C@@H]2C[C@@H](O)CN2C(=O)[C@@H](NCCOCCOCC(=O)NCC(=O)O[C@H]2CC[C@H](Nc3cc(-n4nc(C(F)(F)F)c5c4CC(C)(C)CC5=O)ccc3C(N)=O)CC2)C(C)(C)C)cc1`?
A: Activity [3]: inactive; Activity [4]: inactive; IC50 (SiHa): 0.03 µM

Q: For `CC1(C)CC(=O)c2c(C(F)(F)F)nn(-c3ccc(C(N)=O)c(N[C@H]4CC[C@H](OC(=O)CNC(=O)COCCOCCNc5cccc6c5C(=O)N(C5CCC(=O)NC5=O)C6=O)CC4)c3)c2C1` (some centres not stated), which Activity [5] is on record?
A: inactive

Q: And the Activity [1]?
A: inactive

Q: What about the IC50 (SiHa) of the same compound?
A: 0.04 µM

Q: What does the source list for `CC1(C)CC(=O)c2c(C(F)(F)F)nn(-c3ccc(C(N)=O)c(N[C@H]4CC[C@H](OC(=O)CNC(=O)CCCCCNc5cccc6c5CN(C5CCC(=O)NC5=O)C6=O)CC4)c3)c2C1` (some centres not stated)?
A: Activity [1]: Active; IC50 (SiHa): 0.46 µM

Q: How did the Activity [1] turn out when `CC1(C)CC(=O)c2c(C(F)(F)F)nn(-c3ccc(C(N)=O)c(N[C@H]4CC[C@H](NC(=O)CNC(=O)CCCCCCCCCNc5cccc6c5CN(C5CCC(=O)NC5=O)C6=O)CC4)c3)c2C1` (some centres not stated) was run?
A: inactive

Q: What about the IC50 (SiHa) of the same compound?
A: 0.75 µM

Q: What does the source list for `CC1(C)CC(=O)c2c(C(F)(F)F)nn(-c3ccc(C(N)=O)c(NCCCNC(=O)CCCCCCCNc4cccc5c4CN(C4CCC(=O)NC4=O)C5=O)c3)c2C1` (configuration not stated)?
A: Activity [1]: inactive; IC50 (SiHa): 5.52 µM

Q: What does the source list for `CC1(C)CC(=O)c2c(C(F)(F)F)nn(-c3ccc(C(N)=O)c(NCCCNC(=O)CCCCCNc4cccc5c4CN(C4CCC(=O)NC4=O)C5=O)c3)c2C1` (configuration not stated)?
A: Activity [1]: inactive; IC50 (SiHa): 9.61 µM

Q: Which IC50 (SiHa) does the source give for `CC1(C)CC(=O)c2c(C(F)(F)F)nn(-c3ccc(C(N)=O)c(N[C@H]4CC[C@H](OC(=O)CN)CC4)c3)c2C1` [SNX 5422] here?
A: 0.014 µM

Q: With `CC1(C)CC(=O)c2c(C(F)(F)F)nn(-c3ccc(C(N)=O)c(N[C@H]4CC[C@H](NCCCCCCCCCC(=O)Nc5cccc6c5CN(C5CCC(=O)NC5=O)C6=O)CC4)c3)c2C1` (some centres not stated) as the compound, how does the Activity [1] read?
A: inactive

Q: And the IC50 (SiHa)?
A: 5.27 µM

Q: What does the source list for `CC1(C)CC(=O)c2c(C(F)(F)F)nn(-c3ccc(C(N)=O)c(NCCCNC(=O)CCCCCCCCCCNc4cccc5c4CN(C4CCC(=O)NC4=O)C5=O)c3)c2C1` (configuration not stated)?
A: Activity [1]: inactive; IC50 (SiHa): 0.56 µM

Q: How did the Activity [3] turn out when `Cc1ncsc1-c1ccc([C@H](C)NC(=O)[C@@H]2C[C@@H](O)CN2C(=O)[C@@H](NCCCCCCCCCC(=O)NCC(=O)O[C@H]2CC[C@H](Nc3cc(-n4nc(C(F)(F)F)c5c4CC(C)(C)CC5=O)ccc3C(N)=O)CC2)C(C)(C)C)cc1` was run?
A: Active

Q: And the IC50 (SiHa)?
A: 0.23 µM

Q: Which Activity [1] does the source give for `CC1(C)CC(=O)c2c(C(F)(F)F)nn(-c3ccc(C(N)=O)c(N[C@H]4CC[C@H](NC(=O)CCCCCCCCCNc5cccc6c5CN(C5CCC(=O)NC5=O)C6=O)CC4)c3)c2C1` (some centres not stated) here?
A: inactive

Q: And the IC50 (SiHa)?
A: 0.19 µM

Q: For `CC1(C)CC(=O)c2c(C(F)(F)F)nn(-c3ccc(C(N)=O)c(NCCCNC(=O)CCCCCCCCCNc4cccc5c4CN(C4CCC(=O)NC4=O)C5=O)c3)c2C1` (configuration not stated), which Activity [1] is on record?
A: inactive

Q: And the IC50 (SiHa)?
A: 0.43 µM

Q: How did the IC50 (SiHa) turn out when `CC1(C)CC(=O)c2c(C(F)(F)F)nn(-c3ccc(C(N)=O)c(N[C@H]4CC[C@H](OC(=O)CNC(=O)CCCCNc5cccc6c5CN(C5CCC(=O)NC5=O)C6=O)CC4)c3)c2C1` (some centres not stated) was run?
A: 0.31 µM

Source: ChEMBL document CHEMBL5579824, “Novel Hsp90-Targeting PROTACs: Enhanced synergy with cisplatin in combination therapy of cervical cancer” (Eur J Med Chem, 2024)
